The IC50 is the concentration that inhibits the measured activity by half. A high value points to a need for much substance.

The first test deals with BRD4 protein (Homo sapiens, UniProt O60885). Nature of the test: FRET assay, half maximal inhibitory concentration (IC50). The test is classed as binding. Conditions: BRD4 protein 50 nM, Biotin-H4KAc4 peptide 12.5 nM; A Further List of Classification. The essentials: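 HTRF: 50 nM BRD4 preincubated 30 min at room temperature with compound (10-fold series from 50 μM in 12.5% DMSO) in 50 mM HEPES pH 7.5, 100 mM NaCl, 0.05% CHAPS. Then 12.5 nM biotin-H4KAc4 peptide for 30 min, and anti-GST XL665 (10 nM) plus streptavidin cryptate (2.4 nM) with 0.4 M KF for 1 h. IC50 by variable-slope fit.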
On to `CN1C(=O)CCc2cc(NC(=O)c3ccccc3N3CCOCC3)ccc21` [S1, N-(1-methyl-2-oxo-3,4-dihydroquinolin-6-yl)-2-morpholino-benzamide], for which the IC50 fell in the range of 1000 to 10000 nM.
Compound `Cc1cc(O)nc2ccc(NC(=O)c3ccccc3N3CCOCC3)cc12` [S2, N-(2-hydroxy-4-methyl-6-quinolyl)-2-morpholino-benzamide] yielded an IC50 of 200 to 500 nM.
On the same count and under the same terms, then `Cc1ccc(C(=O)Nc2ccc3c(c2)CCC(=O)N3C)cc1S(=O)(=O)NC1CCCC1` [S3, 3-(cyclopentylsulfamoyl)-4-methyl-N-(1-methyl-2-oxo-3,4-dihydroquinolin-6-yl)benzamide], with 1000 to 10000 nM; and `CN1C(=O)CCc2cc(NC(=O)c3cccnc3N3CCOCC3)ccc21` [S4, N-(1-methyl-2-oxo-3,4-dihydroquinolin-6-yl)-2-morpholino-pyridine-3-carboxamide], with 1000 to 10000 nM.
`CN1CCN(c2ccccc2C(=O)Nc2ccc3c(c2)OCC(=O)N3)CC1` [S5, 2-(4-methylpiperazin-1-yl)-N-(3-oxo-4H-1,4-benzoxazin-7-yl)benzamide]: the concentration for half-maximal inhibition (IC50) was more than 10000 nM.
Still for that read-out and setting: to `CN1CCN(c2ccccc2C(=O)Nc2ccc3c(c2)CCC(=O)N3C)CC1` [S6, N-(1-methyl-2-oxo-3,4-dihydroquinolin-6-yl)-2-(4-methylpiperazin-1-yl)benzamide] belongs more than 10000 nM; to `CN1CCN(c2ccccc2C(=O)Nc2ccc3c(c2)OCC(=O)N3C)CC1` [S7, N-(4-methyl-3-oxo-1,4-benzoxazin-7-yl)-2-(4-methylpiperazin-1-yl)benzamide], more than 10000 nM.
Compound `CN1C(=O)CCc2cc(NC(=O)c3ccccc3N3CCN(c4cnccn4)CC3)ccc21` [S8, N-(1-methyl-2-oxo-3,4-dihydroquinolin-6-yl)-2-(4-pyrazin-2-ylpiperazin-1-yl)benzamide] came in with an IC50 of more than 10000 nM.
Turning to `CN1C(=O)CCc2cc(NC(=O)c3cc([N+](=O)[O-])ccc3N3CCOCC3)ccc21` [S9, N-(1-methyl-2-oxo-3,4-dihydroquinolin-6-yl)-2-morpholino-5-nitro-benzamide], the concentration for half-maximal inhibition (IC50) is more than 10000 nM.
The same measure, in the same setting: then `Cc1cc(O)nc2ccc(NC(=O)c3ccccc3N3CCN(C)CC3)cc12` [S10, N-(2-hydroxy-4-methyl-6-quinolyl)-2-(4-methylpiperazin-1-yl)benzamide], with 1000 to 10000 nM; and `Cc1cc(O)nc2ccc(NC(=O)c3ccccc3N3CCN(c4cnccn4)CC3)cc12` [S11, N-(2-hydroxy-4-methyl-6-quinolyl)-2-(4-pyrazin-2-ylpiperazin-1-yl)benzamide], with 1000 to 10000 nM; and `Cc1cc(O)nc2ccc(NC(=O)c3cc(S(N)(=O)=O)ccc3N3CCOCC3)cc12` [S12, N-(2-hydroxy-4-methyl-6-quinolyl)-2-morpholino-5-sulfamoyl-benzamide], with less than 200 nM.
Take `CN1C(=O)CCc2cc(NC(=O)c3cc(S(N)(=O)=O)ccc3N3CCOCC3)ccc21` [S13, N-(1-methyl-2-oxo-3,4-dihydroquinolin-6-yl)-2-morpholino-5-sulfamoyl-benzamide]: the IC50 lay in the range of 1000 to 10000 nM.
Same read-out and setting: to `Cc1cc(O)nc2ccc(NC(=O)c3cc(N4C(=O)CCC4=O)ccc3N3CCOCC3)cc12` [S14, 5-(2,5-dioxopyrrolidin-1-yl)-N-(2-hydroxy-4-methyl-6-quinolyl)-2-morpholino-benzamide] belongs 200 to 500 nM; to `Cc1cc(O)nc2ccc(NC(=O)c3cc(NS(=O)(=O)c4ccccc4)ccc3N3CCN(C)CC3)cc12` [S15, 5-(benzenesulfonamido)-N-(2-hydroxy-4-methyl-6-quinolyl)-2-(4-methylpiperazin-1-yl)benzamide], 500 to 1000 nM.
Compound `CCS(=O)(=O)Nc1ccc(N2CCN(C)CC2)c(C(=O)Nc2ccc3nc(O)cc(C)c3c2)c1` [S16, 5-(ethylsulfonylamino)-N-(2-hydroxy-4-methyl-6-quinolyl)-2-(4-methylpiperazin-1-yl)benzamide] returned a half-maximal inhibitory concentration (IC50) of 1000 to 10000 nM.
Same read-out and setting: to `Cc1cc(O)nc2ccc(NC(=O)c3cc([N+](=O)[O-])ccc3N3CCOCC3)cc12` [S17, N-(2-hydroxy-4-methyl-6-quinolyl)-2-morpholino-5-nitro-benzamide] belongs less than 200 nM.
`Cc1cc(O)nc2ccc(NC(=O)c3cc(S(=O)(=O)N4CCCCC4)ccc3N3CCOCC3)cc12` [S19, N-(2-hydroxy-4-methyl-6-quinolyl)-2-morpholino-5-(1-piperidylsulfonyl)benzamide]: the 50% inhibitory concentration (IC50) was less than 200 nM.
The same measure, in the same setting: then `Cc1cc(O)nc2ccc(NC(=O)c3cc(S(=O)(=O)N4CCOCC4)ccc3N3CCOCC3)cc12` [S20, N-(2-hydroxy-4-methyl-6-quinolyl)-2-morpholino-5-morpholinosulfonyl-benzamide], with less than 200 nM; and `Cc1cc(O)nc2ccc(NC(=O)c3cccc(CN4CCNCC4)c3)cc12` [S21, N-(2-hydroxy-4-methyl-6-quinolyl)-3-(piperazin-1-ylmethyl)benzamide], with 500 to 1000 nM.
`Cc1cc(O)nc2ccc(NC(=O)c3cc([N+](=O)[O-])ccc3N(C)C)cc12` [S22, 2-(dimethylamino)-N-(2-hydroxy-4-methyl-6-quinolyl)-5-nitro-benzamide] yielded an IC50 of 200 to 500 nM.
`CNS(=O)(=O)c1cccc(C(=O)Nc2ccc3nc(O)cc(C)c3c2)c1` [S23, N-(2-hydroxy-4-methyl-6-quinolyl)-3-(methylsulfamoyl)benzamide]: the IC50 was more than 10000 nM.
Compound `Cc1cc(O)nc2ccc(NC(=O)c3cccc(CN4CCCC4=O)c3)cc12` [S24, N-(2-hydroxy-4-methyl-6-quinolyl)-3-[(2-oxopyrrolidin-1-yl)methyl]benzamide, reference compound] had an IC50 of more than 10000 nM.
Still for that read-out and setting: then `Cc1cc(O)nc2ccc(NC(=O)c3cc([N+](=O)[O-])ccc3N3CCCC3)cc12` [S25, N-(2-hydroxy-4-methyl-6-quinolyl)-5-nitro-2-pyrrolidin-1-yl-benzamide], with less than 200 nM; and `Cc1cc(O)nc2ccc(NC(=O)c3cccc(S(=O)(=O)NCC(N)=O)c3)cc12` [S26, 3-[(2-amino-2-oxo-ethyl)sulfamoyl]-N-(2-hydroxy-4-methyl-6-quinolyl)benzamide], with more than 10000 nM.

Staying with this test, now noted: BRD4 protein 50 nM, Biotin-H4KAc4 peptide 12.5 nM; List of Classification.
Take `Cc1cc(O)nc2ccc(NC(=O)c3cc(C#N)ncc3N3CCC(F)C3)cc12` (stereo not drawn) [Compound-197, 2-cyano-5-(3-fluoropyrrolidin-1-yl)-N-(2-hydroxy-4-methylquinolin-6-yl) isonicotinamide]: the 50% inhibitory concentration (IC50) fell in the range of 500 to 1000 nM.
On the same count and under the same terms, to `Cc1cc(O)nc2ccc(NC(=O)c3cc(S(=O)(=O)N(C)C)cnc3N3CCC(F)C3)cc12` (stereo not drawn) [Compound-199, 5-(N,N-dimethylsulfamoyl)-2-(3-fluoropyrrolidin-1-yl)-N-(2-hydroxy-4-methylquinolin-6-yl)nicotinamide] belongs less than 200 nM; to `Cc1cc(-c2cnc(N3CCOCC3)c(C(=O)Nc3cc4c(C)cc(O)nc4cc3C)c2)on1` [Compound-200, N-(2-hydroxy-4,7-dimethylquinolin-6-yl)-5-(3-methylisoxazol-5-yl)-2-morpholinonicotinamide], 200 to 500 nM; to `COc1cc2nc(O)cc(C)c2cc1NC(=O)c1cc(-c2nnc(C)o2)ccc1N1CCOCC1` [Compound-201, N-(2-hydroxy-7-methoxy-4-methylquinolin-6-yl)-5-(5-methyl-1,3,4-oxadiazol-2-yl)-2-morpholinobenzamide], less than 200 nM.
`Cc1cc(O)nc2ccc(NC(=O)c3cc(C(N)=O)ncc3N3CCCC3)cc12` [Compound-202, N4-(2-hydroxy-4-methylquinolin-6-yl)-5-(pyrrolidin-1-yl)pyridine-2,4-dicarboxamide] yielded a concentration for half-maximal inhibition (IC50) of less than 200 nM.
In turn, `Cc1cc(O)nc2ccc(NC(=O)c3cc(-c4nnn[nH]4)ncc3N3CCCC3)cc12` [Compound-203, N-(2-hydroxy-4-methylquinolin-6-yl)-5-(pyrrolidin-1-yl)-2-(1H-tetrazol-5-yl) isonicotinamide] came in with an IC50 of less than 200 nM.
In the case of `Cc1cc(O)nc2ccc(NC(=O)c3cc(C(C)O)ccc3N3CCCC3c3ccccn3)cc12` (stereo not drawn) [Compound-206, N-(2-hydroxy-4-methylquinolin-6-yl)-5-(1-hydroxyethyl)-2-(2-(pyridin-2-yl)pyrrolidin-1-yl)benzamide], the IC50 is less than 200 nM.
Still for that read-out and setting: then `CC(=O)c1cc(C(=O)Nc2ccc3nc(O)cc(C)c3c2)c(N2CCOCC2)cn1` [Compound-207, 2-acetyl-N-(2-hydroxy-4-methylquinolin-6-yl)-5-morpholinoisonicotinamide], with less than 200 nM.
The same measure, in the same setting: to `Cc1cc(O)nc2ccc(NC(=O)c3cc(C(C)O)ncc3N3CCOCC3)cc12` (stereo not drawn) [Compound-208, N-(2-hydroxy-4-methylquinolin-6-yl)-2-(1-hydroxyethyl)-5-morpholinoisonicotinamide] belongs less than 200 nM.
On the same count and under the same terms, then `CC(=O)c1cc(C(=O)Nc2ccc3nc(O)cc(C)c3c2)c(N2CCC(F)C2)cn1` (stereo not drawn) [Compound-209], with less than 200 nM; and `Cc1cc(O)nc2ccc(NC(=O)c3cc(C(C)O)ncc3N3CCC(F)C3)cc12` (stereo not drawn) [Compound-210, 5-(3-fluoropyrrolidin-1-yl)-N-(2-hydroxy-4-methylquinolin-6-yl)-2-(1-hydroxyethyl) isonicotinamide], with less than 200 nM; and `Cc1cc(O)nc2ccc(NC(=O)c3cc(C#N)ncc3N3CCCC3CN(C)C)cc12` (stereo not drawn) [Compound-211], with 200 to 500 nM.
In turn, `CC(=O)c1cc(C(=O)Nc2ccc3nc(O)cc(C)c3c2)c(N2CCCC2CN(C)C)cn1` (stereo not drawn) [Compound-212, 2-acetyl-5-(2-((dimethylamino)methyl)pyrrolidin-1-yl)-N-(2-hydroxy-4-methylquinolin-6-yl)isonicotinamide] displayed an IC50 of less than 200 nM.
Still for that read-out and setting: then `Cc1cc(O)nc2ccc(NC(=O)c3cc(C(C)O)ncc3N3CCCC3CN(C)C)cc12` (stereo not drawn) [Compound-213, 5-(2-((dimethylamino)methyl)pyrrolidin-1-yl)-N-(2-hydroxy-4-methylquinolin-6-yl)-2-(1-hydroxyethyl)isonicotinamide], with less than 200 nM.
